Results reported in patent US8828678B2, “Self-immolative probes for enzyme activity detection” (Enzo Life Sciences, Inc., priority 2010, dated 2014).

Experiment: Chemical reduction of CD-8 and enzymatic (HRP) luminescence testing of the reduction product
Settings: 200 μM CD-8, 1 mM sodium hydrosulfite, 1 hour room temperature, then H2O2, 4-iodophenol
Procedure: 100 μl of 200 μM CD-8 (dissolved in 1×PBS buffer) with (1 mM) or without sodium hydrosulfite was incubated in a 96 black microplate (Greiner®) at room temperature for 1 hour. Also included was a positive control of 100 μl of 50 μM of isoluminol dissolved in 1×PBS buffer. A 4:1 volumetric mixture (1.25 μL) of stabilized H2O2 (Roche Diagnotics GmbH: Reference number: 11 582 950 001, component 2) and 200 mM of 4-idophenol was then added. Before adding horseradish peroxidase (HRP), the background luminescence was recorded; after adding 2 μL of 50 μM HRP, the luminescence was immediately recorded on a Biotek® plate reader.

In the case of O=C(Nc1ccc2c(=O)[nH][nH]c(=O)c2c1)OCc1ccc([N+](=O)[O-])cc1 [CD-8], the “luminescence / release of isoluminol after sodium hydrosulfite” value is reported as “triggering the self-immolative release of isoluminol”.
